target: T1, human CB2 receptors (Homo sapiens, UniProt P34972); assay: cAMP assay; type: cell-based; details: not given
T1 construct: expressed in transfected cells; host or cells: CHO cells
Protocol: CHO cells expressing human CB1 or CB2 receptors are seeded 17-24 hours prior to the experiment 50.000 cells per well in a black 96 well plate with flat clear bottom (Corning Costar #3904) in DMEM (Invitrogen No. 31331), 1×HT supplement, with 10% fetal calf serum and incubated at 5% CO2 and 37° C. in a humidified incubator. The growth medium was exchanged with Krebs Ringer Bicarbonate buffer with 1 mM IBMX and incubated at 30° C. for 30 min. Compounds were added to a final assay volume of 100 μl and incubated for 30 min at 30° C. Using the cAMP-Nano-TRF detection kit the assay (Roche Diagnostics) was stopped by the addition of 50 μl lysis reagent (Tris, NaCl, 1.5% Triton X100, 2.5% NP40, 10% NaN3) and 50 μl detection solutions ([…] mAb Alexa700-cAMP 1:[…] Ruthenium-2-AHA-cAMP) and shaken for 2 h at room temperature. The time-resolved energy transfer is measured by a TRF reader (Evotec Technologies GmbH), equipped with a ND:YAG laser as excitation source. The plate is measured twice with the excitation at 355 nm and at the emission with a delay of 100 ns and a gate of 100 ns, total exposure time 10 s at 730 (bandwidth 30 nm) or 645 nm (bandwidth 75 nm), respectively. The FRET signal is calculated as follows: FRET=T730-Alexa730-P(T645-B645) with P=Ru730-B730/Ru645-B645, where T730 is the test well measured at 730 nM, T645 is the test well measured at 645 nm, B730 and B645 are the buffer controls at 730 nm and 645 nm, respectively. cAMP content is determined from the function of a standard curve spanning from […] to 0.13 nM cAMP.
EC50 values were determined using Activity Base analysis (ID Business Solution, Limited).

T1 sequence (P34972 whole entry): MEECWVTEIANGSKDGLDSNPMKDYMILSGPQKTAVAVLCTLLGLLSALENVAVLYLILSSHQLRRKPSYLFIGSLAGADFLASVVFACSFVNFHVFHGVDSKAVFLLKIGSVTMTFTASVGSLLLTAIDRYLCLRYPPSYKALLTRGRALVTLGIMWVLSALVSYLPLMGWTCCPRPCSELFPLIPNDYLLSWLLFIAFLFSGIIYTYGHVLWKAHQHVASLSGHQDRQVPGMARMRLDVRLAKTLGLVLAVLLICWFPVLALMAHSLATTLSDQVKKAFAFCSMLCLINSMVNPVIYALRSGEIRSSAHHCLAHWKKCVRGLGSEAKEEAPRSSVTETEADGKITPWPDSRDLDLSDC

Compound	EC50
COC(=O)C(C)(C)NC(=O)c1ccc(-c2ccc(Cl)cc2)c(SC)n1 [Example 1, Methyl 2-[[5-(4-chlorophenyl)-6-methylsulfanylpyridine-2-carbonyl]amino]-2-methylpropanoate]	344 nM
COC(=O)C(C)(C)NC(=O)c1ccc(-c2ccc(Cl)cc2)c(OCC2CC2)n1 [Example 2, Methyl 2-[[5-(4-chlorophenyl)-6-(cyclopropylmethoxy)pyridine-2-carbonyl]amino]-2-methylpropanoate]	48.2 nM
CC(C)(NC(=O)c1ccc(-c2ccc(Cl)cc2)c(OCC2CC2)n1)c1ncco1 [Example 3, 5-(4-Chlorophenyl)-6-(cyclopropylmethoxy)-N-[2-(1,3-oxazol-2-yl)propan-2-yl]pyridine-2-carboxamide]	144 nM
Cc1nc(C(C)(C)NC(=O)c2ccc(-c3ccc(Cl)cc3)c(OCC3CC3)n2)no1 [Example 4, 5-(4-Chlorophenyl)-6-(cyclopropylmethoxy)-N-[2-(5-methyl-1,2,4-oxadiazol-3-yl)propan-2-yl]pyridine-2-carboxamide]	232 nM
CC(C)(NC(=O)c1ccc(-c2ccccc2)c(OCC2CC2)n1)c1ncco1 [Example 5, 6-(Cyclopropylmethoxy)-N-[2-(1,3-oxazol-2-yl)propan-2-yl]-5-phenylpyridine-2-carboxamide]	34.2 nM
CCC(CC)(NC(=O)c1ccc(-c2ccccc2)c(OCC2CC2)n1)C(=O)NC [Example 6, 6-(Cyclopropylmethoxy)-N-[3-(methylcarbamoyl)pentan-3-yl]-5-phenylpyridine-2-carboxamide]	831 nM
CCC(CC)(NC(=O)c1ccc(OCC2CC2)c(-c2cccc(Cl)c2)n1)C(=O)NC [Example 7, 6-(3-Chlorophenyl)-5-(cyclopropylmethoxy)-N-[3-(methylcarbamoyl)pentan-3-yl]pyridine-2-carboxamide]	51.3 nM
COC1CN(c2ccc(C(=O)NC(C)(C)c3noc(C)n3)nc2OCC2CC2)C1 [Example 8, 6-(Cyclopropylmethoxy)-5-(3-methoxyazetidin-1-yl)-N-[2-(5-methyl-1,2,4-oxadiazol-3-yl)propan-2-yl]pyridine-2-carboxamide]	86.6 nM
Cc1nc(C(C)(C)NC(=O)c2ccc(OCC3CC3)c(-c3cccc(Cl)c3)n2)no1 [Example 9, 6-(3-Chlorophenyl)-5-(cyclopropylmethoxy)-N-[2-(5-methyl-1,2,4-oxadiazol-3-yl)propan-2-yl]pyridine-2-carboxamide]	42.4 nM
COC1CN(c2ccc(C(=O)N[C@@H](CC3CC3)C(N)=O)nc2OCC2CC2)C1 [Example 10, N-[(2S)-1-amino-3-cyclopropyl-1-oxopropan-2-yl]-6-(cyclopropylmethoxy)-5-(3-methoxyazetidin-1-yl)pyridine-2-carboxamide]	63.4 nM
CC(C)(NC(=O)c1ccc(N2CC3(COC3)C2)c(OCC2CC2)n1)c1nccs1 [Example 11, 6-(Cyclopropylmethoxy)-5-(2-oxa-6-azaspiro[3.3]heptan-6-yl)-N-[2-(1,3-thiazol-2-yl)propan-2-yl]pyridine-2-carboxamide]	135 nM
CC(C)C[C@H](NC(=O)c1ccc(N2CC3(COC3)C2)c(OCC2CC2)n1)C(N)=O [Example 12, N-[(2S)-1-amino-4-methyl-1-oxopentan-2-yl]-6-(cyclopropylmethoxy)-5-(2-oxa-6-azaspiro[3.3]heptan-6-yl)pyridine-2-carboxamide]	177 nM
CC(C)(NC(=O)c1ccc(OCC2CC2)c(-c2cccc(Cl)c2)n1)c1nccs1 [Example 13, 6-(3-Chlorophenyl)-5-(cyclopropylmethoxy)-N-[2-(1,3-thiazol-2-yl)propan-2-yl]pyridine-2-carboxamide]	23.1 nM
NC(=O)[C@H](CC1CC1)NC(=O)c1ccc(OCC2CC2)c(OCC2CC2)n1 [Example 14, N-[(2S)-1-Amino-3-cyclopropyl-1-oxopropan-2-yl]-5,6-bis(cyclopropylmethoxy)pyridine-2-carboxamide]	95 nM
COC1CN(c2ccc(C(=O)N[C@@H](CC(C)C)C(N)=O)nc2OCC2CC2)C1 [Example 15, N-[(2S)-1-Amino-4-methyl-1-oxopentan-2-yl]-6-(cyclopropylmethoxy)-5-(3-methoxyazetidin-1-yl)pyridine-2-carboxamide]	21.9 nM
CSCC[C@H](NC(=O)c1ccc(OCC2CC2)c(Cl)n1)C(N)=O [Example 16, N-[(2S)-1-Amino-4-methylsulfanyl-1-oxobutan-2-yl]-6-chloro-5-(cyclopropylmethoxy)pyridine-2-carboxamide]	973 nM
CCC(CC)(NC(=O)c1ccc(OCC2CC2)c(Cl)n1)C(=O)NC [Example 17, 6-Chloro-5-(cyclopropylmethoxy)-N-[3-(methylcarbamoyl)pentan-3-yl]pyridine-2-carboxamide]	800 nM
Cc1nc([C@H](CC2CC2)NC(=O)c2ccc(OCC3CC3)c(Cl)n2)no1 [Example 18, 6-Chloro-5-(cyclopropylmethoxy)-N-[(1S)-2-cyclopropyl-1-(5-methyl-1,2,4-oxadiazol-3-yl)ethyl]pyridine-2-carboxamide]	646 nM
CCOC(=O)C(CC)(CC)NC(=O)c1ccc(N2CC(OC)C2)c(OCC2CC2)n1 [Example 20, Ethyl 2-[[6-(cyclopropylmethoxy)-5-(3-methoxyazetidin-1-yl)pyridine-2-carbonyl]amino]-2-ethylbutanoate]	6.5 nM
CCC(CC)(NC(=O)c1ccc(N2CC(OC)C2)c(OCC2CC2)n1)C(=O)NCCF [Example 25, 6-(Cyclopropylmethoxy)-N-[3-(2-fluoroethylcarbamoyl)pentan-3-yl]-5-(3-methoxyazetidin-1-yl)pyridine-2-carboxamide]	334 nM
CCC(CC)(NC(=O)c1ccc(N2CC(OC)C2)c(OCC2CC2)n1)C(=O)N1CC(F)C1 [Example 26, 6-(Cyclopropylmethoxy)-N-[3-(3-fluoroazetidine-1-carbonyl)pentan-3-yl]-5-(3-methoxyazetidin-1-yl)pyridine-2-carboxamide]	4.58 nM
NC(=O)[C@@H]1CC(F)(F)CN1C(=O)c1ccc(N2CCC(O)(C(F)(F)F)C2)c(OCC2CC2)n1 (stereo partly drawn) [Example 28, (2S)-1-[6-(Cyclopropylmethoxy)-5-[3-hydroxy-3-(trifluoromethyl)pyrrolidin-1-yl]pyridine-2-carbonyl]-4,4-difluoropyrrolidine-2-carboxamide]	1680 nM
CC(C)C[C@H](NC(=O)c1ccc(N2CCC(O)(C(F)(F)F)C2)c(OCC2CC2)n1)C(N)=O (stereo partly drawn) [Example 29, N-[(2S)-1-Amino-4-methyl-1-oxopentan-2-yl]-6-(cyclopropylmethoxy)-5-[3-hydroxy-3-(trifluoromethyl)pyrrolidin-1-yl]pyridine-2-carboxamide]	1890 nM
CC(C)C[C@H](NC(=O)c1ccc(N2CCC3(C2)CC3(F)F)c(OCC2CC2)n1)C(N)=O (stereo partly drawn) [Example 30, N-[(2S)-1-Amino-4-methyl-1-oxopentan-2-yl]-6-(cyclopropylmethoxy)-5-(2,2-difluoro-5-azaspiro[2.4]heptan-5-yl)pyridine-2-carboxamide]	38.1 nM
NC(=O)[C@@H]1CC(F)(F)CN1C(=O)c1ccc(N2CCC3(C2)CC3(F)F)c(OCC2CC2)n1 (stereo partly drawn) [Example 31, (2S)-1-[6-(Cyclopropylmethoxy)-5-(2,2-difluoro-5-azaspiro[2.4]heptan-5-yl)pyridine-2-carbonyl]-4,4-difluoropyrrolidine-2-carboxamide]	19 nM

same assay, conditions: CHO cells expressing human CB2 receptors; read-out: cAMP assay human CB2 EC50

Compound	EC50
COC1CN(c2ccc(C(=O)NC(C)(C)Cc3nnc(-c4ccc(F)cc4)o3)nc2OCC2CC2)C1 [Example 21, 6-(Cyclopropylmethoxy)-N-[1-[5-(4-fluorophenyl)-1,3,4-oxadiazol-2-yl]-2-methylpropan-2-yl]-5-(3-methoxyazetidin-1-yl)pyridine-2-carboxamide]	853 nM
COC1CN(c2ccc(C(=O)NC3(CC(N)=O)COC3)nc2OCC2CC2)C1 [Example 22, N-[3-(2-Amino-2-oxoethyl)oxetan-3-yl]-6-(cyclopropylmethoxy)-5-(3-methoxyazetidin-1-yl)pyridine-2-carboxamide]	67 nM
CCC(CC)(NC(=O)c1ccc(N2CC(OC)C2)c(OCC2CC2)n1)C(=O)NC [Example 23, 6-(Cyclopropylmethoxy)-5-(3-methoxyazetidin-1-yl)-N-[3-(methylcarbamoyl)pentan-3-yl]pyridine-2-carboxamide]	47 nM
COC1CN(c2ccc(C(=O)NCC3(O)CCCCC3)nc2OCC2CC2)C1 [Example 24, 6-(Cyclopropylmethoxy)-N-[(1-hydroxycyclohexyl)methyl]-5-(3-methoxyazetidin-1-yl)pyridine-2-carboxamide]	1290 nM
CCC(CC)(NC(=O)c1ccc(N2CC(OC)C2)c(OCC2CC2)n1)C(=O)NCCCF [Example 27, 6-(Cyclopropylmethoxy)-N-[3-(3-fluoropropylcarbamoyl)pentan-3-yl]-5-(3-methoxyazetidin-1-yl)pyridine-2-carboxamide]	444 nM
